Measurements taken from US12234240B2, “Substituted imidazo[5,1-d][1,2,3,5]tetrazines for the treatment of cancer” (The Board of Trustees of the University of Illinois, priority 2018, dated 2025).
Where two headings read alike, the source gives them in different places.

Assays:
[1] = tested on: GBM Br23c oncospheres intracranially implanted; experiment: Intracranial mouse model of GBM (Br23c oncospheres); type: in vivo; conditions: for increase in median survival over TMZ: equimolar to 15 mg/kg TMZ, oral gavage once-per-day, 5×/week, 7 weeks
Source text: FIG. 5. Evaluation of imidazotetrazines in intracranial mouse models of GBM. GBM Br23c oncospheres were intracranially implanted into female athymic nude mice. Treatment was started 5 days post implantation. […] Compounds were formulated in 10% PEG in PBS immediately prior to each treatment. Number of mice per treatment cohort≥5. Survival curves were compared using log-rank test.
in vivo Efficacy Models. Human GBM Br23c stem-like neurosphere cells were intracranially implanted in female athymic nude mice (150,000 cells/mouse). […] Mice were observed daily for any signs of deterioration, neurotoxicity, or movement disorders. They were inspected for signs of pain and distress, as in accordance with the Johns Hopkins Animal Care and Use Guidelines.

T98G cells [2] = experiment: cells; type: cell-based; conditions: for IC50: Homo sapiens, 7-day incubation; for Fold Change: between IC50 (+/−) O6BG
Description: FIG. 4. Imidazotetrazines were added to T98G cells with or without 3 h pre-treatment of O6BG (100 μM). IC50 values after 7-day incubation and fold changes between (+/−) O6BG treatments are reported. […] Error is SEM, n≥3. Statistical significance was determined by using a two-sample Student's t-test (two-tailed test, assuming equal variance).

[3] = Mouse liver microsome stability assay; type: in vitro ADME; conditions: for metabolic stability in words: mouse liver microsomes, 2 hours; for Stability (2 h, Microsomes): percentage remaining relative to t0, error SEM, n ≥ 2
Description: (§1) Liver microsome stability.
(§2) Mouse Liver Microsome Stability Assay. A mixture of PBS (pH 7.4), NADPH regenerating system solution A (Corning Life Sciences), and NADPH regenerating system solution B (Corning Life Sciences) was incubated at 37° C. in a shaking incubator for 5 min. Next, compound was added in DMSO (final concentration 50 μM, 0.5% DMSO) before ice-cold mouse liver microsomes (Thermo Fisher, male CD-1 mice, pooled) were added (final protein concentration of 1 mg/mL). An aliquot was immediately removed, quenched with an equal volume of 100 μM internal standard and 0.5% hydrochloric acid in ice-cold acetonitrile, and centrifuged at 13,000 rcf for 3 min. The supernatant was diluted 1:5 in ddH2O and analyzed by LC-MS. The reactions were incubated at 37° C. in a shaking incubator for 2 h. A second aliquot was removed, quenched and diluted as before and analyzed by LC-MS. The ratio of the areas of analyte:internal standard at 2 hours was compared to the ratio at t0 to determine the percentage of compound remaining. Analysis was performed on an Agilent 6230 LC/MS TOF system with a 1.8 μm, 2.1×50 mm Agilent ZORBAX Eclipse Plus C18 column.

[4] = Assessment of hematological toxicity in vivo
Description: Assessment of hematological toxicity. […] Both lymphocyte (FIG. 3b) and neutrophil (FIG. 8a) concentrations were decreased in TMZ-treated mice. […] Total WBC, lymphocyte, and neutrophil counts for mice treated with these compounds were equivalent to those of control mice.
Assessment of Hematological Toxicity. Male CD-1 IGS mice (n=4 mice/group) were administered a single dose of 125 mg/kg compound intravenously. Imidazotetrazines were formulated with SBEβCD in sterile water immediately prior to injection. Seven days post-treatment, mice were humanely sacrificed and whole blood was collected for assessment of total white blood cells, lymphocytes, neutrophils, platelets, and red blood cells.

D54 cells = experiment: Cell viability, Alamar Blue, 7-day incubation, D54; type: cell-based; conditions: Homo sapiens, D54, 168 h, MGMT −, error SEM
Description: (§3) Anticancer activity of C8 substituted imidazotetrazines. With a suite of imidazotetrazines in hand, each compound was evaluated against a panel of human GBM cell lines (Table 1a, Table 1b).

[5] = Hydrolytic stability in buffered saline (HPLC assay); conditions: saline at pH 7.0, 7.4, and 8.0, 2 h at 37° C.
Description: Hydrolytic stability of C8 substituted imidazotetrazines. […] A HPLC assay was developed to quantify the fraction of intact prodrug remaining in solution after 2 hours at pH 7.4, 37° C.

[6] = tested on: Br23c GBM oncosphere cell line; experiment: Cell viability, Alamar Blue, 7-day, Br23c GBM oncosphere line; type: cell-based; conditions: Homo sapiens, 168 h, error SEM, read-out: 7-day IC50 MGMT − Br23C
T98G cells [7] = experiment: Cell viability, Alamar Blue, 7-day incubation, T98G; type: cell-based; conditions: Homo sapiens, 168 h, MGMT +, error SEM
Description: as §3

[8] = Stability in the absence of microsomes (microsomes replaced with PBS); type: physicochemical; conditions: liver microsomes replaced with PBS, percentage remaining relative to t0
Description: as §1, §2

U87 cells = experiment: Cell viability, Alamar Blue, 7-day incubation, U87; type: cell-based; conditions: Homo sapiens, U-87 MG, 168 h, MGMT −, error SEM
Description: as §3

[9] = 3 h pre-treatment with O6BG (100 μM)
[10] = Table 1a, 7 days, read-out: IC50 D54
[11] = Table 1a, 7 days, read-out: IC50 T98G
[12] = Table 1a, 7 days, n ≥ 3, read-out: IC50 U87
[13] = Table 1b, read-out: 7-day IC50 T98G
[14] = Table 1b, read-out: 7-day IC50 D54
[15] = Table 1b, read-out: 7-day IC50 U87

SMILES	metabolic stability in words [3]	IC50 (D54 cells; [10]) [µM]	IC50 (T98G cells [7]; [11]) [µM]	IC50 (U87 cells; [12]) [µM]	also measured
CC(=O)c1ncn2c(=O)n(C)nnc12 [Compound 17, 8-acetyl-3-methylimidazo[5,1-d][1,2,3,5]tetrazin-4(3H)-one]	generally stable to oxidative metabolism	18 ± 1	–	–	extension of median survival past TMZ-treated mice ([1]; 14.9 mg/kg oral once-per-day for 5 total doses): more than 50 days; IC50 (T98G cells [2]; [9]): 32 ± 4 µM; IC50 (T98G cells [2]; 168 h, without O6BG): 240 ± 20 µM; Fold Change (T98G cells [2]): 8; Cohort weight 7 days Post ([4]; mice, 7 days after single IV dose of 125 mg/kg, error SEM, 4 mice): 31 ± 1 g; Cohort weight Pre-treatment ([4]; mice, prior to single IV dose of 125 mg/kg, error SEM, 4 mice): 30 ± 1 g; myelosuppression / white blood cell effect ([4]; mice, single IV dose 125 mg/kg, complete blood count after 7 days): did not produce myelosuppression; pH dependence of hydrolysis [5]: pH-dependent; IC50 [6]: 5.2 ± 0.3 µM
Cn1nnc2c(-c3ccccc3)ncn2c1=O [Compound 23, 3-methyl-8-phenylimidazo[5,1-d][1,2,3,5]tetrazin-4(3H)-one]	–	7 ± 1	14 ± 1	9 ± 1	Stability (2 h, No Microsomes) [8]: 103 ± 5%; Stability (2 h, Microsomes) [3]: 44 ± 2%
Cn1nnc2c(Br)ncn2c1=O [Compound 18, 8-bromo-3-methylimidazo[5,1-d][1,2,3,5]tetrazin-4(3H)-one]	–	–	–	–	IC50 (T98G cells [7]; [13]): 60 ± 10 µM; IC50 (D54 cells; [14]): 20 ± 1 µM; IC50 (U87 cells; [15]): 26 ± 7 µM
CN(C)C(=O)c1ncn2c(=O)n(C)nnc12 [Compound 5, N,N,3-trimethyl-4-oxo-3,4-dihydroimidazo[5,1-d][1,2,3,5]tetrazine-8-carboxamide]	some susceptibility to the effects of the microsomes	12 ± 5	250 ± 60	40 ± 20	increase in median survival over TMZ [1]: 46%; IC50 (T98G cells [2]; [9]): 25 ± 9 µM; IC50 (T98G cells [2]; 168 h, without O6BG): 250 ± 60 µM; Fold Change (T98G cells [2]): 10; IC50 [6]: 6 ± 1 µM
Cn1nnc2c(-c3ccc(Cl)cc3)ncn2c1=O [Compound 26, 8-(4-chlorophenyl)-3-methylimidazo[5,1-d][1,2,3,5]tetrazin-4(3H)-one]	–	–	–	–	IC50 (T98G cells [7]; [13]): 19 ± 3 µM; IC50 (D54 cells; [14]): 7 ± 1 µM; IC50 (U87 cells; [15]): 9 ± 1 µM
CCSC(=O)c1ncn2c(=O)n(C)nnc12 [Compound 10, S-ethyl 3-methyl-4-oxo-3,4-dihydroimidazo[5,1-d][1,2,3,5]tetrazine-8-carbothioate]	–	8 ± 1	327 ± 4	64 ± 21	–
CCCCN(CCCC)C(=O)c1ncn2c(=O)n(C)nnc12 [Compound 7, N,N-dibutyl-3-methyl-4-oxo-3,4-dihydroimidazo[5,1-d][1,2,3,5]tetrazine-8-carboxamide]	markedly less stability in liver microsomes	11 ± 2	140 ± 20	27 ± 6	Stability (2 h, No Microsomes) [8]: 98 ± 3%; Stability (2 h, Microsomes) [3]: 1 ± 1%
CCN(CC)C(=O)c1ncn2c(=O)n(C)nnc12 [Compound 6, N,N-diethyl-3-methyl-4-oxo-3,4-dihydroimidazo[5,1-d][1,2,3,5]tetrazine-8-carboxamide]	–	13 ± 2	160 ± 40	80 ± 30	Stability (2 h, No Microsomes) [8]: 95 ± 2%; Stability (2 h, Microsomes) [3]: 81 ± 1%
Cn1nnc2c(C(=O)N3CCCC3)ncn2c1=O [Compound 8, 3-methyl-8-(pyrrolidine-1-carbonyl)imidazo[5,1-d][1,2,3,5]tetrazin-4(3H)-one]	–	12 ± 4	186 ± 5	17 ± 3	–
Cn1nnc2c(-c3ccc(F)cc3)ncn2c1=O [Compound 24, 8-(4-fluorophenyl)-3-methylimidazo[5,1-d][1,2,3,5]tetrazin-4(3H)-one]	–	–	–	–	IC50 (T98G cells [7]; [13]): 18 ± 2 µM; IC50 (U87 cells; [15]): 13 ± 2 µM
Cn1nnc2c(C(N)=S)ncn2c1=O [Compound 28, 3-methyl-4-oxo-3,4-dihydroimidazo[5,1-d][1,2,3,5]tetrazine-8-carbothioamide]	–	8 ± 1	31 ± 4	9 ± 1	–
Cn1nnc2c(C(=O)O)ncn2c1=O [Compound 3]	–	130 ± 8	321 ± 8	320 ± 7	–
Cn1nnc2c(-c3ccc(C(F)(F)F)cc3)ncn2c1=O [Compound 25, 3-methyl-8-(4-(trifluoromethyl)phenyl)imidazo[5,1-d][1,2,3,5]tetrazin-4(3H)-one]	–	–	–	–	IC50 (T98G cells [7]; [13]): > 100 µM; IC50 (U87 cells; [15]): 16 ± 1 µM
Cc1cnc(-c2ncn3c(=O)n(C)nnc23)o1 [Compound 27, 3-methyl-8-(5-methyloxazol-2-yl)imidazo[5,1-d][1,2,3,5]tetrazin-4(3H)-one]	–	9 ± 1	100 ± 20	27 ± 4	IC50 (T98G cells [2]; [9]): 5 ± 1 µM; IC50 (T98G cells [2]; 168 h, without O6BG): 100 ± 20 µM; Fold Change (T98G cells [2]): 20; Cohort weight 7 days Post ([4]; mouse, in vivo, iv, 125 mg/kg): 31.6 ± 0.3 g; myelosuppression / white blood cell effect ([4]; mouse, in vivo, iv, 125 mg/kg): did not produce myelosuppression
CNC(=O)c1ncn2c(=O)n(C)nnc12 [Compound 4, N,3-dimethyl-4-oxo-3,4-dihydroimidazo[5,1-d][1,2,3,5]tetrazine-8-carboxamide]	some susceptibility to the effects of the microsomes	11 ± 1	580 ± 20	49 ± 7	increase in median survival over TMZ [1]: 24%; IC50 [6]: 6 ± 1 µM
Cn1nnc2c(Cl)ncn2c1=O [Compound 19, 8-chloro-3-methylimidazo[5,1-d][1,2,3,5]tetrazin-4(3H)-one]	generally stable to oxidative metabolism	21 ± 4	60 ± 10	15 ± 4	Stability (2 h, No Microsomes) [8]: 91 ± 1%; Stability (2 h, Microsomes) [3]: 91 ± 3%
